What was measured:
[1] = target: T1, Human PDGFRβ, cytoplasmic domain (GST-PDGFRβ) (Homo sapiens, UniProt P09619); experiment: Human PDGFRβ biochemical inhibition assay (off-chip Mobility Shift Assay)
T1 construct: made in house
Procedure, shortened: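 GST-tagged cytoplasmic domain (aa 557-1106) from baculovirus was incubated 1 h at room temperature with compound, CSKtide, ATP at Km and Mg²⁺ in HEPES buffer, pH 7.5. Phosphorylated and unphosphorylated peptide were separated by off-chip mobility shift, and the product ratio P/(P+S) gave percent inhibition.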

[2] = target: T2, Human PDGFRα, cytoplasmic domain (GST-PDGFRα) (Homo sapiens, UniProt P16234); experiment: Human PDGFRα biochemical inhibition assay (off-chip Mobility Shift Assay)
T2 construct: made in house
T2 sequence (P16234 550-1089 T674I): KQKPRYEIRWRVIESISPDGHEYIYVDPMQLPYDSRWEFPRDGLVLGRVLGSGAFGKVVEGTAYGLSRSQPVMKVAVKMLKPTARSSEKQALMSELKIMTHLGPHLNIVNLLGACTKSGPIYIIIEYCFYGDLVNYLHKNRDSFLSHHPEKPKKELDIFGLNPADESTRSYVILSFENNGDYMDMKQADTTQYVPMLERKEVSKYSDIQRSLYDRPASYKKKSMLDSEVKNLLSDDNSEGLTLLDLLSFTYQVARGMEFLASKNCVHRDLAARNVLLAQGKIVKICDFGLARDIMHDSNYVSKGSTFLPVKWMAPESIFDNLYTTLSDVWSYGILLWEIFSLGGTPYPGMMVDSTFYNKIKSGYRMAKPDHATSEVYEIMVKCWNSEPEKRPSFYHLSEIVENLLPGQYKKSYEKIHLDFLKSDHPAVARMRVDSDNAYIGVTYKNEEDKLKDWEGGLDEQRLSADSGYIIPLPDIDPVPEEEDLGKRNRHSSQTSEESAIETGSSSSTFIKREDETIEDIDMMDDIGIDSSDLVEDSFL

T1 sequence (P09619 with tags, fused parts or gaps): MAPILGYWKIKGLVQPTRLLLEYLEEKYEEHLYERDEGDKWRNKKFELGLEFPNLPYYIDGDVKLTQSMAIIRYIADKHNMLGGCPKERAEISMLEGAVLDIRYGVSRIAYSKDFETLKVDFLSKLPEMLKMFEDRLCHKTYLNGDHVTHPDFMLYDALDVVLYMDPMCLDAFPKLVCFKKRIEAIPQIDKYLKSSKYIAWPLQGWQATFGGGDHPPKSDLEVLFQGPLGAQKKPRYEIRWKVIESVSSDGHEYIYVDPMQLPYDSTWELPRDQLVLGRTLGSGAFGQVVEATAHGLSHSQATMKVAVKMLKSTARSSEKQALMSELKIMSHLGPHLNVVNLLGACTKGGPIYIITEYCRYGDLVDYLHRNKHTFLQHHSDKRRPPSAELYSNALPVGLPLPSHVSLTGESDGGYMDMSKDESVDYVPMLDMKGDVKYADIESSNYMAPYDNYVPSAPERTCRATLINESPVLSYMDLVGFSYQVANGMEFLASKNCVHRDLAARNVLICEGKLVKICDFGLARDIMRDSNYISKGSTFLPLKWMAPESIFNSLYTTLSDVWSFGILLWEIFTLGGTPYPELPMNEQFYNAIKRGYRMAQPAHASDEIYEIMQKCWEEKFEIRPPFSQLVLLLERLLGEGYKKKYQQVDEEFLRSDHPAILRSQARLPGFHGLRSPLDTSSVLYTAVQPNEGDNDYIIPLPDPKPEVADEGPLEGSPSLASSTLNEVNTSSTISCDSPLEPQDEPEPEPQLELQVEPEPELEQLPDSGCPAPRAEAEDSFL

Row | SMILES | IC50 [1] | IC50 [2]
1 | Cc1cncc(C(=O)Nc2cccc([C@H](C)Nc3cnc4ccn(C)c4c3)c2)c1 [Compound 80, (S)-5-methyl-N-(3-(1-((1-methyl-1H-pyrrolo[3,2-b]pyridin-6-yl)amino)ethyl)phenyl)nicotinamide] | ≥ 1000 nM | 300 to 1000 nM
2 | Cc1cc(C(=O)Nc2cccc([C@H](C)Nc3cnc4cnn(C)c4n3)c2)ccc1C#N [Compound 193, (S)-4-cyano-3-methyl-N-(3-(1-((1-methyl-1H-pyrazolo[3,4-b]pyrazin-6-yl)amino)ethyl)phenyl)benzamide] | < 300 nM | < 300 nM
3 | COC(=O)c1ccc(C(=O)Nc2cccc([C@H](C)Nc3cnc4cnn(C)c4n3)c2)cn1 [Compound 212, methyl (S)-5-((3-(1-((1-methyl-1H-pyrazolo[3,4-b]pyrazin-6-yl)amino)ethyl)phenyl)carbamoyl) picolinate] | ≥ 1000 nM | 300 to 1000 nM
4 | CCn1cc2ncc(N[C@@H](C)c3cc(NC(=O)Cc4cc(F)ccc4F)ccc3C)nc2n1 [Compound 702, (S)-2-(2,5-difluorophenyl)-N-(3-(1-((2-ethyl-2H-pyrazolo[3,4-b]pyrazin-6-yl)amino)ethyl)-4-methylphenyl)acetamide] | < 300 nM | < 300 nM
5 | CCn1cc2ncc(N[C@@H](C)c3cccc(NC(=O)c4ccc(NC5CC5)nc4)c3)nc2n1 [Compound 385, (S)-6-(cyclopropylamino)-N-(3-(1-((2-ethyl-2H-pyrazolo[3,4-b]pyrazin-6-yl)amino)ethyl)phenyl)nicotinamide] | 300 to 1000 nM | < 300 nM
6 | C[C@H](Nc1cnc2ccoc2n1)c1cc(NC(=O)c2ccc(C(F)(F)F)nc2)ccc1F [Compound 617, (S)-N-(4-fluoro-3-(1-(furo[2,3-b]pyrazin-3-ylamino)ethyl)phenyl)-6-(trifluoromethyl) nicotinamide] | < 300 nM | < 300 nM
7 | COc1cncc(C(=O)Nc2cccc([C@H](C)Nc3cnc4[nH]cc(-c5cnn(C)c5)c4n3)c2)c1 [Compound 586, (S)-5-methoxy-N-(3-(1-((7-(1-methyl-1H-pyrazol-4-yl)-5H-pyrrolo[2,3-b]pyrazin-2-yl)amino)ethyl)phenyl) nicotinamide] | < 300 nM | < 300 nM
8 | CCn1cc2ncc(N[C@@H](C)c3cc(NC(=O)c4cnc(C(F)(F)F)c(C)c4)ccc3F)nc2n1 [Compound 335, (S)-N-(3-(1-((2-ethyl-2H-pyrazolo[3,4-b]pyrazin-6-yl)amino)ethyl)-4-fluorophenyl)-5-methyl-6-(trifluoromethyl) nicotinamide] | < 300 nM | < 300 nM
9 | CCOc1ncc(C(=O)Nc2cccc([C@H](C)Nc3cnc4cn(CC)nc4n3)c2)cc1C [Compound 314, (S)-6-ethoxyN-(3-(1-((2-ethyl-2H-pyrazolo[3,4-b]pyrazin-6-yl)amino)ethyl)phenyl)-5-methylnicotinamide] | < 300 nM | < 300 nM
10 | C[C@H](Nc1cnc2cnn(C)c2n1)c1cccc(NC(=O)c2ccn(CC(F)F)n2)c1 [Compound 158, (S)-1-(2,2-difluoroethyl)-N-(3-(1-((1-methyl-1H-pyrazolo[3,4-b]pyrazin-6-yl)amino)ethyl)phenyl)-1H-pyrazole-3-carboxamide] | 300 to 1000 nM | < 300 nM
11 | C[C@H](Nc1cnc2[nH]cc(-c3cnn(C)c3)c2n1)c1cccc(NC(=O)c2cnc(C(F)(F)F)s2)c1 [Compound 582, (S)-N-(3-(1-((7-(1-methyl-1H-pyrazol-4-yl)-5H-pyrrolo[2,3-b]pyrazin-2-yl)amino)ethyl)phenyl)-2-(trifluoromethyl) thiazole-5-carboxamide] | 300 to 1000 nM | 300 to 1000 nM
12 | Cc1cncc(C(=O)Nc2cccc([C@H](C)Nc3cnc4ccsc4n3)c2)c1 [Compound 607] | < 300 nM | < 300 nM
13 | CCn1cc2ncc(N[C@@H](C)c3cccc(NC(=O)Cc4ccc5c(n4)CCC5)c3)nc2n1 [Compound 718, (S)-2-(6,7-dihydro-5H-cyclopenta[b]pyridin-2-yl)-N-(3-(1-((2-ethyl-2H-pyrazolo[3,4-b]pyrazin-6-yl)amino)ethyl)phenyl)acetamide] | ≥ 1000 nM | < 300 nM
14 | CCn1cc2ncc(N[C@@H](C)c3cc(NC(=O)c4ccc(OC(F)F)nc4)ccc3C)nc2n1 [Compound 511, (S)-6-(difluoromethoxy)-N-(3-(1-((2-ethyl-2H-pyrazolo[3,4-b]pyrazin-6-yl)amino)ethyl)-4-methylphenyl)nicotinamide] | < 300 nM | < 300 nM
15 | CCn1cc2ncc(N[C@@H](C)c3cc(NC(=O)Cc4cncc(F)c4)ccc3F)nc2n1 [Compound 653, (S)-N-(3-(1-((2-ethyl-2H-pyrazolo[3,4-b]pyrazin-6-yl)amino)ethyl)-4-fluorophenyl)-2-(5-fluoropyridin-3-yl)acetamide] | ≥ 1000 nM | < 300 nM
16 | Cc1cncc(C(=O)Nc2cccc([C@H](C)Nc3cnc4[nH]cc(C5CC5)c4n3)c2)c1 [Compound 569, (S)-N-(3-(1-((7-cyclopropyl-5H-pyrrolo[2,3-b]pyrazin-2-yl)amino)ethyl)phenyl)-5-methylnicotinamide] | < 300 nM | 300 to 1000 nM
17 | CCn1cc2ncc(N[C@@H](C)c3cccc(NC(=O)c4ccc(CN5CCC6(CC5)COC6)c(C)c4)c3)nc2n1 [Compound 480, (S)-4-((2-oxa-7-azaspiro[3.5]nonan-7-yl)methyl)-N-(3-(1-((2-ethyl-2H-pyrazolo[3,4-b]pyrazin-6-yl)amino)ethyl)phenyl)-3-methylbenzamide] | 300 to 1000 nM | < 300 nM
18 | CCn1cc2ncc(N[C@@H](C)c3cccc(NC(=O)Cc4cncc(F)c4)c3)nc2n1 [Compound 623, (S)-N-(3-(1-((2-ethyl-2H-pyrazolo[3,4-b]pyrazin-6-yl)amino)ethyl)phenyl)-2-(5-fluoropyridin-3-yl)acetamide] | ≥ 1000 nM | 300 to 1000 nM
19 | CCc1cncc(C(=O)Nc2cccc([C@H](C)Nc3cnc4cnn(C)c4n3)c2)c1 [Compound 101] | < 300 nM | < 300 nM
20 | CCn1cc2ncc(N[C@@H](C)c3cccc(NC(=O)Nc4ccc(C5CC5)nc4)c3)nc2n1 [Compound 737, (S)-1-(6-cyclopropylpyridin-3-yl)-3-(3-(1-((2-ethyl-2H-pyrazolo[3,4-b]pyrazin-6-yl)amino)ethyl)phenyl)urea] | < 300 nM | < 300 nM
21 | CCn1cc2ncc(N[C@@H](C)c3cccc(NC(=O)c4cnc(N5CCN(C)CC5)c(Cl)c4)c3)nc2n1 [Compound 421, (S)-5-chloro-N-(3-(1-((2-ethyl-2H-pyrazolo[3,4-b]pyrazin-6-yl)amino)ethyl)phenyl)-6-(4-methylpiperazin-1-yl) nicotinamide] | < 300 nM | < 300 nM
22 | CCn1cc2ncc(N[C@@H](C)c3cccc(NC(=O)c4ccc(N(C)C)c(C)c4)c3)nc2n1 [Compound 384, (S)-4-(dimethylamino)-N-(3-(1-((2-ethyl-2H-pyrazolo[3,4-b]pyrazin-6-yl)amino)ethyl)phenyl)-3-methylbenzamide] | < 300 nM | < 300 nM
23 | CCn1cc2ncc(N[C@@H](C)c3cc(NC(=O)c4cnc(NC5CC5)c(C)c4)ccc3C)nc2n1 [Compound 515, (S)-6-(cyclopropylamino)-N-(3-(1-((2-ethyl-2H-pyrazolo[3,4-b]pyrazin-6-yl)amino)ethyl)-4-methylphenyl)-5-methylnicotinamide] | < 300 nM | < 300 nM
24 | CCNc1ncc(C(=O)Nc2cccc([C@H](C)Nc3cnc4cn(CC)nc4n3)c2)s1 [Compound 364, (S)-N-(3-(1-((2-ethyl-2H-pyrazolo[3,4-b]pyrazin-6-yl)amino)ethyl)phenyl)-2-(ethylamino)thiazole-5-carboxamide] | 300 to 1000 nM | < 300 nM
25 | CCn1cc2ncc(N[C@@H](C)c3cccc(NC(=O)c4ccc5c(c4)OCO5)c3)nc2n1 [Compound 64, (S)-N-(3-(1-((2-ethyl-2H-pyrazolo[3,4-b]pyrazin-6-yl)amino)ethyl)phenyl) benzo[d][1,3]dioxole-5-carboxamide] | 300 to 1000 nM | < 300 nM
26 | CCn1cc2ncc(N[C@@H](C)c3cccc(NC(=O)c4cnc(C(F)(F)F)c(C)c4)c3)nc2n1 [Compound 288, (S)-N-(3-(1-((2-ethyl-2H-pyrazolo[3,4-b]pyrazin-6-yl)amino)ethyl)phenyl)-5-methyl-6-(trifluoromethyl)nicotinamide] | < 300 nM | < 300 nM
27 | CCn1cc2ncc(N[C@@H](C)c3cccc(NC(=O)c4ccc(CN5CC6(COC6)C5)c(C)c4)c3)nc2n1 [Compound 414, (S)-4-((2-oxa-6-azaspiro[3.3]heptan-6-yl)methyl)-N-(3-(1-((2-ethyl-2H-pyrazolo[3,4-b]pyrazin-6-yl)amino)ethyl)phenyl)-3-methylbenzamide] | < 300 nM | < 300 nM
28 | C[C@H](Nc1cnc2cnn(C)c2n1)c1cccc(NC(=O)c2cnc3c(ccn3C)c2)c1 [Compound 169, (S)-1-methyl-N-(3-(1-((1-methyl-1H-pyrazolo[3,4-b]pyrazin-6-yl)amino)ethyl)phenyl)-1H-pyrrolo[2,3-b] pyridine-5-carboxamide] | < 300 nM | < 300 nM
29 | CCc1ccc(C(=O)Nc2cccc([C@H](C)Nc3cnc4cnn(C)c4n3)c2)cc1C [Compound 251, (S)-4-ethyl-3-methyl-N-(3-(1-((1-methyl-1H-pyrazolo[3,4-b]pyrazin-6-yl)amino)ethyl)phenyl)benzamide] | < 300 nM | < 300 nM
30 | CCn1cc2ncc(N[C@@H](C)c3cccc(NC(=O)Cc4cc(F)cc(F)c4)c3)nc2n1 [Compound 643, (S)-2-(3,5-difluorophenyl)-N-(3-(1-((2-ethyl-2H-pyrazolo[3,4-b]pyrazin-6-yl)amino)ethyl)phenyl)acetamide] | 300 to 1000 nM | < 300 nM

From patent US20230102554A1 (GB002, INC., priority 2019, published 2023)
